Consider 16 molecules from patent EP3212201B1, “NUCLEOSIDE KINASE INHIBITORS” (BCI Pharma, priority 2014, dated 2016).

By inhibition is commonly meant the relative decrease from the control value, in per cent.

What all share (assay): FRET-based coupled-enzyme protein kinase inhibition assay
Assay type in all cases: biochemical
Common to all, as to conditions: compound at 10 µM, 1% DMSO

In one assay the target is PRKCB1 (PKC beta I) (Homo sapiens, UniProt P05771). As to the method: (§1) A biochemical assay was then performed in order to measure the protein kinase inhibition. It employed a fluorescence-based coupled-enzyme format and was based on the differential sensitivity of phosphorylated and non-phosphorylated peptides to proteolytic cleavage.
PRKCB1 (PKC beta I), sequence (P05771 whole entry, species assumed): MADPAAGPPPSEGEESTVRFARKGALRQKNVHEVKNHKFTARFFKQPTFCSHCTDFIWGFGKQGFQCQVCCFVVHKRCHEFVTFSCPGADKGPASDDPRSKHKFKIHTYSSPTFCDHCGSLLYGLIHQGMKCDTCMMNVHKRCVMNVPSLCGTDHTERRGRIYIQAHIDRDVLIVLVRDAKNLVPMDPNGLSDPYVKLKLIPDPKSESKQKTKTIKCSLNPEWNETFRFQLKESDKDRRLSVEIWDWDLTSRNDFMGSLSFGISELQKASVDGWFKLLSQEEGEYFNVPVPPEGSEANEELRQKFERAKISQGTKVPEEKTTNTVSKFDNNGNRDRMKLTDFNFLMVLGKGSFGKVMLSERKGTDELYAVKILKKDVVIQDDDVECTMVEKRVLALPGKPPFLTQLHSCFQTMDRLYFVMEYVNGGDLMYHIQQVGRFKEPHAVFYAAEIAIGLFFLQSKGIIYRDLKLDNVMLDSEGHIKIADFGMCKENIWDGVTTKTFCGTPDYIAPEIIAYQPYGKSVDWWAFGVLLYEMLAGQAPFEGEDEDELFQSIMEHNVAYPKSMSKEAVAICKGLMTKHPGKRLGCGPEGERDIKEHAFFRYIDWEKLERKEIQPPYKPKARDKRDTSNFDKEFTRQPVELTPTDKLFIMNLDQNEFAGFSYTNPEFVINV
(§2) Peptide substrates were labeled with two fluorophores. The two fluorohores used were coumarin (donor) and fluorecein (acceptor), and each of the peptides was bearing one at one end, and one at the other end, which made up fluorescence resonance energy transfer (FRET) pair peptides.
(§3) In a primary reaction, the FRET-peptides were submitted to a phosphorylation reaction, in which one of adenosine triphosphate (ATP)'s phosphate groups was transferred to the peptide in the presence of kinase. When kinase inhibition takes place, the peptide will not be phosphorylated. In a secondary reaction, both the phosphorylated FRET-peptides and the non-phosphorylated FRET-peptides were reacted with a development reagent. It has been observed that non-phosphorylated FRET-peptides were cleaved, whereas the phosphorylted FRET-peptide remained intact.
(§4) Cleavage disrupts FRET between the donor (i.e., coumarin) and acceptor (i.e., fluorescein) fluorophores on the FRET-peptide, whereas uncleaved, phosphorylated FRET-peptides maintain FRET. A ratiometric method, which calculates the Emission Ratio of donor emission to acceptor emission after excitation of the donor fluorophore at 400 nm, is used to quantitate reaction progress, as shown in the equation below. [formula]
(§5) A significant benefit of this ratiometric method for quantitating reaction progress is the elimination of well-to-well variations in FRET-peptide concentration and signal intensities. As a result, the assay yields very high Z'factor values (>0.7) at a low percent phosphorylation. Both cleaved and uncleaved FRET-peptides contribute to the fluorescence signals and therefore to the Emission Ratio. The extent of phosphorylation of the FRET-peptide can be calculated from the Emission Ratio. The Emission Ratio will remain low if the FRET-peptide is phosphorylated (i.e., no kinase inhibition) and will be high if the FRET-peptide is non-phosphorylated (i.e., kinase inhibition).
(§6) The Test Compounds were screened in 1% DMSO. For 10 point titrations, 3-fold serial dilutions were prepared from the starting concentration.
(§7) All Peptide/Kinase Mixtures were diluted to a 2X working concentration in the appropriate Kinase Buffer (50 mM HEPES pH 7.5, 0.01% BRIJ-35, 10 mM MgCl2, 1 mM […]).
(§8) All ATP Solutions were diluted to a 4X working concentration in Kinase Buffer. ATP Km apparent was previously determined using another assay.
The Development Reagent was diluted in Development Buffer. For 5 mL 10X Novel PKC Lipid Mix, 10X Novel PKC Lipid Mix being composed of 2 mg/ml Phosphatidyl Serine, 0.2 mg/ml DAG in 20 mM HEPES, pH 7.4, 0.3% CHAPS, 10 mg of Phosphatidyl Serine (Avanti Polar Lipids Part# 8400032C or 840039C) and 1 mg DAG (Avanti Polar Lipids Part# 800811C) were added to a glass tube.
The chloroform was removed from the lipid mixture by evaporating to a clear, thin film under a stream of nitrogen. Continuous rotation of the tube, at an angle to ensure maximum surface area of the lipid solution, has promoted the thinnest film. 5mL resuspension buffer, 20 mM HEPES, 0.3% CHAPS, pH 7.4, were added to the dried lipid mix, which was then gently heated to 50-60°C for 1-2 minutes and vortexed in short intervals until the lipids are dissolved to a clear or slightly hazy solution. The lipids were typically in solution after 2-3 heat-vortex cycles. The solution was cooled to room temperature, aliquoted into single use volumes and stored at -20 °C.
(§9) 2.5 µL - 4X Test Compound or 100 nL 100X plus 2.4 µL kinase buffer were mixed together with 2. 5 µL - 2X Peptide/Kinase Mixture and 3. 2.5 µL - 4X ATP Solution.
The solution was plate-shaked for 30 seconds, then incubated 60 minutes at room temperature for kinase reaction. […]

Another assay concerns the target T1, IRAK4 (Homo sapiens, UniProt Q9NWZ3).
T1 sequence (Q9NWZ3 1-460): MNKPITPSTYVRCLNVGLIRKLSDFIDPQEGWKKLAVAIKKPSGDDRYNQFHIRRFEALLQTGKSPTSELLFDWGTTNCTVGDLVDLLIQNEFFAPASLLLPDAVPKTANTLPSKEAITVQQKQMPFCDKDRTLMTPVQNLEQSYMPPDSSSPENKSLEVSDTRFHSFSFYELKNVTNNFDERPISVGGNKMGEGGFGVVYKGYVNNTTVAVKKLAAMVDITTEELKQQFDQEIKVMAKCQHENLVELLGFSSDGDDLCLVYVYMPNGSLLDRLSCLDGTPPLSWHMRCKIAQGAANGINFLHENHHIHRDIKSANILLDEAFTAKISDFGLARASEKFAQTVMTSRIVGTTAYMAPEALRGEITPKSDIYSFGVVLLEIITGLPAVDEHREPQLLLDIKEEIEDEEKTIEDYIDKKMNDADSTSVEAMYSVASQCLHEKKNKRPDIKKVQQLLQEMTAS
As to the method: as §1, §2, §3, §4, §5, §6, §7, §8, §9
(§10) The solution was plate-shaked for 30 seconds, then incubated 60 minutes at room temperature for kinase reaction. 5 µL of Development Reagent Solution were then added, followed by a 30-second plate shake and a 60-minute Development Reaction incubation at room temperature. The results were read on a fluorescence plate reader and the data was analyzed.
(§11) The compounds that show the highest Emission Ratio are the ones that also show the highest protein kinase inhibition properties.

Another assay has as its target AMPK A1/B1/G1 (Homo sapiens, UniProt Q13131). As to the method: as §1, §2, §3, §4, §5, §6, §7, §8, §9, §10, §11
In another assay the target is ROCK1 (Homo sapiens, UniProt Q13464). The method, then:
as §1, §2, §3, §4, §5, §6, §7, §8, §9, §10, §11

AMPK A1/B1/G1, sequence (Q13131 whole entry): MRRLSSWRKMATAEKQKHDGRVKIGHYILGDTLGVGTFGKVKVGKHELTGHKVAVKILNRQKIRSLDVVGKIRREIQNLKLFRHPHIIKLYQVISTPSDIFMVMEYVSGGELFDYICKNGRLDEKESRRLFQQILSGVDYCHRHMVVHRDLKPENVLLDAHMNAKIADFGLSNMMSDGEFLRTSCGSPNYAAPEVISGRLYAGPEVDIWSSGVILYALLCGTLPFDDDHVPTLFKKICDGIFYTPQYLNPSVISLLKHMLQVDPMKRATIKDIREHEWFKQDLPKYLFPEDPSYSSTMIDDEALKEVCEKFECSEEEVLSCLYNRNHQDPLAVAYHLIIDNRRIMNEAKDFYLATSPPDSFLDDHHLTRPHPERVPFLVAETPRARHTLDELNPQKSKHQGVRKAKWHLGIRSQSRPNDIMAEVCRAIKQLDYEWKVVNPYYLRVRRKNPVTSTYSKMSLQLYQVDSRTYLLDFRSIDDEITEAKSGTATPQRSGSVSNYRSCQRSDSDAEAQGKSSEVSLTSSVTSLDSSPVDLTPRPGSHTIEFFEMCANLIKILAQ
AMPK A1/B1/G1, sequence (Q9Y478 whole entry partner): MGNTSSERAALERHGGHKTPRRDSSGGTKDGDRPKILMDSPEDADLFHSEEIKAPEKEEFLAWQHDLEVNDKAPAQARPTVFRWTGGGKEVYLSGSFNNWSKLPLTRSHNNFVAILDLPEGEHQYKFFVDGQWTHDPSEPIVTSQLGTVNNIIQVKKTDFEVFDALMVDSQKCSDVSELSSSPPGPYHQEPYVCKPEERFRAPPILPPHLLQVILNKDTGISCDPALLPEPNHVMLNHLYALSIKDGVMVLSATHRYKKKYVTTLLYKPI
AMPK A1/B1/G1, sequence (P54619 whole entry partner): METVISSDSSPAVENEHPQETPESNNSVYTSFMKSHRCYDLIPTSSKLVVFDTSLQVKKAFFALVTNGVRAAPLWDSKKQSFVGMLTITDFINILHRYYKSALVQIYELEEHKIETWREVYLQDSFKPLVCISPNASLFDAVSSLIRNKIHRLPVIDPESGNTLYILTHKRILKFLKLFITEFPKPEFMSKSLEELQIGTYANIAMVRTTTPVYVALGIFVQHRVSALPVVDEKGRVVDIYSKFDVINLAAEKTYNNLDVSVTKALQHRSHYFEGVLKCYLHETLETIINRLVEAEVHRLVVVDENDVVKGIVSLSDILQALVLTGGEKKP
ROCK1, sequence (Q13464 whole entry, species assumed): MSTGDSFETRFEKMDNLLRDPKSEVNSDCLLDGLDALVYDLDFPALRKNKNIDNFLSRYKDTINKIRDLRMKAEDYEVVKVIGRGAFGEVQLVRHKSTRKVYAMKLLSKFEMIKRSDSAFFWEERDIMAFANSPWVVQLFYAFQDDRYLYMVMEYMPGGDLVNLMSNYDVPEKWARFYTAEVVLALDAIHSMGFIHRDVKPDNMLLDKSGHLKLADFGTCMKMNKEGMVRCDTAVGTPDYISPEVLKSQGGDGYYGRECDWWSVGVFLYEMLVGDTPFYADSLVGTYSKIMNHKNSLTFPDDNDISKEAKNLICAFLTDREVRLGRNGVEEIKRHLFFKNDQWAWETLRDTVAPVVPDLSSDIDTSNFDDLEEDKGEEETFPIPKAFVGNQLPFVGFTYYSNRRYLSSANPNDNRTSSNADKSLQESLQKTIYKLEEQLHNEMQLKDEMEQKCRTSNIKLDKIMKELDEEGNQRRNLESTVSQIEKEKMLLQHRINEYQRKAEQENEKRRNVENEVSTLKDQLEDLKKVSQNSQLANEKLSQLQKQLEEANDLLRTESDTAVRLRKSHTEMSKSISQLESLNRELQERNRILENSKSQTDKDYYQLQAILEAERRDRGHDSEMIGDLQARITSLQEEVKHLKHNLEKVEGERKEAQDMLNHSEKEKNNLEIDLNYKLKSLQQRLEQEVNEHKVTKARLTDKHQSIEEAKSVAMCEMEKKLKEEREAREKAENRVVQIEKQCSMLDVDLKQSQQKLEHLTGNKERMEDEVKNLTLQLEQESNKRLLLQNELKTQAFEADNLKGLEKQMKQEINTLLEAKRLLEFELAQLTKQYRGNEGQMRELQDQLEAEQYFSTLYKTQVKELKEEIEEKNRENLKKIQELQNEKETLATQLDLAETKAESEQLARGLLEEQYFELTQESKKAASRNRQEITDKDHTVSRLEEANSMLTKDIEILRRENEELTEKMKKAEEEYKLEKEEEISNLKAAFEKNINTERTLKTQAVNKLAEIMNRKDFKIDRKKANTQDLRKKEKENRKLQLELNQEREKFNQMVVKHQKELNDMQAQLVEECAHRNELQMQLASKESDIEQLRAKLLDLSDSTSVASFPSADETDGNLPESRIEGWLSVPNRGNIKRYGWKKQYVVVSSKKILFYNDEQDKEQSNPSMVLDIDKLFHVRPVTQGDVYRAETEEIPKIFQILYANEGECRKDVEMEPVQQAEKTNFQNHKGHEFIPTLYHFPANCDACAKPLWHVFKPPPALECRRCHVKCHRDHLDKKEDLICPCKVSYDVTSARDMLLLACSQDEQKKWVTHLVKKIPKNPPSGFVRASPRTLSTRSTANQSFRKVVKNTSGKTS

Take `Nc1ncnc2c1ncn2[C@@H]1O[C@H](COC(=O)N2CCN(C(=O)N3CCOCC3)CC2)[C@@H](O)[C@H]1O` [Compound C89]: the inhibition at 10 µM against PRKCB1 (PKC beta I) is -6%; against IRAK4, -5%; against AMPK A1/B1/G1 it was 2%; against ROCK1 it was -15%.
The corresponding values for `Nc1ncnc2c1ncn2[C@@H]1O[C@H](COC(=O)N2CCC(Cc3ccc(F)cc3)C2)[C@@H](O)[C@H]1O` (stereo partly shown) [Compound C66] are 1%, -2%, 14% and -1%.
On to `Nc1ncnc2c1ncn2[C@@H]1O[C@H](COC(=O)N2CCN(CCc3ccccc3)CC2)[C@@H](O)[C@H]1O` [Compound C26], for which the inhibition at 10 µM against PRKCB1 (PKC beta I) was 0%; against IRAK4, 2%; at AMPK A1/B1/G1, 3%; at ROCK1, -12%.
For `CN1CCN(CCNC(=O)OC[C@H]2O[C@@H](n3cnc4c(N)ncnc43)[C@H](O)[C@@H]2O)CC1` [Compound C46], the inhibition at 10 µM on PRKCB1 (PKC beta I) was 0%; at IRAK4, 7%; at AMPK A1/B1/G1, 4%; against ROCK1, -3%.
The corresponding values for `CC(C)N1CCC(NC(=O)OC[C@H]2O[C@@H](n3cnc4c(N)ncnc43)[C@H](O)[C@@H]2O)CC1` [Compound C19] are 4%, -3%, 5% and 2%.
Turning to `Nc1ncnc2c1ncn2[C@@H]1O[C@H](COC(=O)NCCCc2nc3ccccc3[nH]2)[C@@H](O)[C@H]1O` [Compound C1], the inhibition at 10 µM at PRKCB1 (PKC beta I) was 6%; against IRAK4, -2%; on AMPK A1/B1/G1, 17%; at ROCK1 it was 18%.
The corresponding values for `CN(C)CCNC(=O)OC[C@H]1O[C@@H](n2cnc3c(N)ncnc32)[C@H](O)[C@@H]1O` [Compound C85] are -1%, -1%, 4% and -7%.
With `CS(=O)(=O)N1CC2(CCN(C(=O)OC[C@H]3O[C@@H](n4cnc5c(N)ncnc54)[C@H](O)[C@@H]3O)CC2)c2ccccc21` [Compound C98], the inhibition at 10 µM against PRKCB1 (PKC beta I) was -1%; on IRAK4 it was -17%; against AMPK A1/B1/G1, 9%; on ROCK1, -8%.
In the same order, the values of `Nc1ncnc2c1ncn2[C@@H]1O[C@H](COC(=O)NC[C@H](O)CO)[C@@H](O)[C@H]1O` [Compound C8] are -11%, -8%, 17% and 2%.
For the molecule `Nc1ncnc2c1ncn2[C@@H]1O[C@H](COC(=O)N2CCN(Cc3ccccc3)CC2CO)[C@@H](O)[C@H]1O` (stereo partly shown) [Compound C13], the inhibition at 10 µM against PRKCB1 (PKC beta I) is 7%; against IRAK4 it was 13%; at AMPK A1/B1/G1, 6%; on ROCK1, -7%.
Regarding `Nc1ncnc2c1ncn2[C@@H]1O[C@H](COC(=O)N2CCC[C@H]2CO)[C@@H](O)[C@H]1O` [Compound C9], the inhibition at 10 µM on PRKCB1 (PKC beta I) is -6%; against IRAK4, -2%; against AMPK A1/B1/G1, 4%; on ROCK1, -10%.
In the same order, the values of `Nc1ncnc2c1ncn2[C@@H]1O[C@H](COC(=O)NCCN2CCCC2=O)[C@@H](O)[C@H]1O` [Compound C22] are -8%, 1%, 4% and -7%.
Consider `C[C@@H](NC(=O)OC[C@H]1O[C@@H](n2cnc3c(N)ncnc32)[C@H](O)[C@@H]1O)c1ccc(Cl)cc1` [Compound C4], for which the inhibition at 10 µM on PRKCB1 (PKC beta I) is -1%; against IRAK4 it was 3%; against AMPK A1/B1/G1, 17%; against ROCK1, -7%.
Consider `Nc1ncnc2c1ncn2[C@@H]1O[C@H](COC(=O)N[C@@H]2CCN(Cc3ccccc3)C2)[C@@H](O)[C@H]1O` [Compound C10], for which the inhibition at 10 µM against PRKCB1 (PKC beta I) is 5%; against IRAK4, 6%; on AMPK A1/B1/G1, 11%; on ROCK1, -2%.
On to `N#CCCN1CCN(C(=O)OC[C@H]2O[C@@H](n3cnc4c(N)ncnc43)[C@H](O)[C@@H]2O)CC1` [Compound C70], for which the inhibition at 10 µM on PRKCB1 (PKC beta I) was -5%; against IRAK4, 0%; at AMPK A1/B1/G1, 8%; against ROCK1, -3%.
In the same order, the values of `Nc1ncnc2c1ncn2[C@@H]1O[C@H](COC(=O)N2CCS(=O)(=O)CC2)[C@@H](O)[C@H]1O` [Compound C100] are 1%, 0%, 4% and -6%.
